Tested on: high-sensitivity C-reactive protein
Assay: COLCOT biomarker substudy: high-sensitivity C-reactive protein
Assay type: in vivo, human
Description: Additional prespecified exploratory end points included the change from baseline to 6 months in the high-sensitivity C-reactive protein level and the change from baseline to 12 months in the white-cell count. The C-reactive protein biomarker substudy was implemented after a protocol amendment and was optional for sites and for patients; 34 sites chose to participate in this substudy.
The analysis of the primary end point was repeated in the per-protocol population (i.e., patients without major protocol deviations). Secondary and exploratory end points expressed as time to event were analyzed similarly. The changes from baseline to follow-up were analyzed with the use of an analysis of covariance model with adjustment for baseline value, and estimates of treatment effect are presented with 95% confidence intervals.
High-sensitivity C-reactive protein was measured in a subgroup of only 207 patients at the time of randomization and 6 months later, and the median concentration at trial entry was 4.28 mg per liter. […] The adjusted geometric mean percent changes in the high-sensitivity C-reactive protein level at 6 months after myocardial infarction were −70.0% in the colchicine group and −66.6% in the placebo group, and the placebo-adjusted geometric mean percent change was −10.1% percentage points in the colchicine group (95% CI, −28.6 to 13.4) (Table 8).
In Table 8, the placebo-adjusted geometric mean percent change was obtained by exponentiating the adjusted mean difference between groups from the analysis of covariance model (based on log-transformed data), then subtracting 1 and multiplying by 100.
In addition, the C-reactive protein biomarker sub-study was implemented following a protocol amendment and was optional for sites and for patients; 34 sites accepted to participate in this substudy. There were 213 and 208 patients who provided blood samples at baseline and 6 months, respectively. Paired baseline and 6-month hs-CRP values were available in 207 patients. Clinically available white blood cell counts were obtained from 2598 patients at baseline and 1998 patients at 12 months, and paired baseline and 12-month values were available in 1972 patients. Statistical analysis was conducted on the patients who provided both baseline and follow-up data and as these were exploratory analyses, no missing data was imputed.

## COc1cc2c(c(OC)c1OC)-c1ccc(OC)c(=O)cc1[C@@H](NC(C)=O)CC2 [Colchicine, colchicine]
At 6 months, N=99
  Hs-C reactive protein, geometric mean: 1.37 mg/L
At Randomization (baseline), N=99
  Hs-C reactive protein, geometric mean: 4.27 mg/L
Baseline to 6 months, N=99
  Hs-C reactive protein, Adjusted GM percent change: −70.0%
Baseline to 6 months, colchicine vs placebo
  Hs-C reactive protein, Placebo-adjusted GM percent change: −10.1%
Over the first 6 months after myocardial infarction, in both trial groups, difference between groups not significant
  reduction in the C-reactive protein level: > 65%

Source: patent US12514832B2, “Methods for using low-dose colchicine after myocardial infarction” (INSTITUT DE CARDIOLOGIE DE MONTREAL, priority 2019, dated 2026)
